Test results from patent publication US8574563B2 (Bristol-Myers Squibb Company, priority 2006, dated 2013).

The molecules below were run on HCV 1b-377-neo replicon cells (assay: HCV replicon assay, HCV 1b-377-neo replicon cells (1b FRET)). Conditions: HCV 1b-377-neo replicon cells; HCV 1b genotype; read-out: EC50 range against HCV 1b (Table 2, Range).
Format: cell-based, Hepatitis C virus genotype 1b
Method in brief: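 Compounds were tested in genotype 1b subgenomic replicon cells carrying a neomycin marker, alongside a matched replicon line with an NS5A Y2065H substitution that confers resistance to a reference NS5A inhibitor.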

Structure (SMILES) | EC50 [nM]
O=C([C@@H](c1ccccc1)N1CCCC1)N1CCC[C@H]1c1ncc(-c2ccc(-c3ccc(-c4cnc([C@@H]5CCCN5C(=O)[C@@H](c5ccccc5)N5CCOCC5)[nH]4)cc3)cc2)[nH]1 [Example 96, 4-((1R)-2-oxo-1-phenyl-2-((2S)-2-(5-(4′-(2-((2S)-1-((2R)-2-phenyl-2-(pyrrolidinyl)acetyl)-2-pyrrolidinyl)-1H-imidazol-5-yl)-4-biphenylyl)-1H-imidazol-2-yl)-1-pyrrolidinyl)ethyl)morpholine] | 0.001 to 0.999

Same assay, conditions: Hepatitis C virus, HCV 1b-377-neo replicon cells; HCV 1b genotype; read-out: EC50 range against HCV 1b (Table 2, Range)

Structure (SMILES) | EC50 [nM]
COC(=O)N[C@@H](C)C(=O)N1CCC[C@H]1c1ncc(-c2ccc(-c3ccc(-c4cnc([C@@H]5CCCN5C(=O)[C@H](NC(=O)OC)c5ccccc5)[nH]4)cc3)cc2)[nH]1 [Example 75, methyl ((1R)-2-((2S)-2-(5-(4′-(2-((2S)-1-(N-(methoxycarbonyl)-L-alanyl)-2-pyrrolidinyl)-1H-imidazol-5-yl)-4-biphenylyl)-1H-imidazol-2-yl)-1-pyrrolidinyl)-2-oxo-1-phenylethyl)carbamate] | 0.001 to 0.999
COC(=O)N[C@@H](C(=O)N1CCC[C@H]1c1ncc(-c2ccc(-c3ccc(-c4cnc([C@@H]5CCCN5C(=O)Cc5cccc(O)c5)[nH]4)cc3)cc2)[nH]1)c1ccccc1 [Example 84-14, methyl ((1R)-2-((2S)-2-(5-(4′-(2-((2S)-1-((3-hydroxyphenyl)acetyl)-2-pyrrolidinyl)-1H-imidazol-5-yl)-4-biphenylyl)-1H-imidazol-2-yl)-1-pyrrolidinyl)-2-oxo-1-phenylethyl)carbamate] | 1 to 99
CC[C@@H](C(=O)N1CCC[C@H]1c1ncc(-c2ccc(-c3ccc(-c4cnc([C@@H]5CCCN5C(=O)[C@@H](NC(=O)OC)C(C)C)[nH]4)cc3)cc2)[nH]1)N(CC)CC [Example M86, methyl ((1S)-1-(((2S)-2-(5-(4′-(2-((2S)-1-((2S)-2-(diethylamino)butanoyl)-2-pyrrolidinyl)-1H-imidazol-5-yl)-4-biphenylyl)-1H-imidazol-2-yl)-1-pyrrolidinyl)carbonyl)-2-methylpropyl)carbamate] | 1 to 99
COC(=O)N[C@H](C(=O)N1CCC[C@H]1c1ncc(-c2ccc(-c3ccc(-c4[nH]c([C@@H]5CCCN5C(=O)[C@@H](NC(=O)OC)C5CC5)nc4C(F)(F)F)cc3)cc2)[nH]1)C1CC1 [Example J41, methyl ((1S)-1-cyclopropyl-2-((2S)-2-(5-(4′-(2-((2S)-1-((2S)-2-cyclopropyl-2-((methoxycarbonyl)amino)acetyl)-2-pyrrolidinyl)-1H-imidazol-5-yl)-4-biphenylyl)-4-(trifluoromethyl)-1H-imidazol-2-yl)-1-pyrrolidinyl)-2-oxoethyl)carbamate] | 0.001 to 0.999
CCN(C)[C@@H](C(=O)N1CCC[C@H]1c1ncc(-c2ccc(-c3ccc(-c4cnc([C@@H]5CCCN5C(=O)[C@H](C)NC(=O)OC)[nH]4)cc3)cc2)[nH]1)c1ccccc1 [Example M99, methyl ((1S)-2-((2S)-2-(5-(4′-(2-((2S)-1-((2R)-2-(ethyl(methyl)amino)-2-phenylacetyl)-2-pyrrolidinyl)-1H-imidazol-5-yl)-4-biphenylyl)-1H-imidazol-2-yl)-1-pyrrolidinyl)-1-methyl-2-oxoethyl)carbamate] | 1 to 99
COC(=O)N[C@H](C(=O)N1CCC[C@H]1c1ncc(-c2ccc(-c3ccc(-c4nc([C@@H]5CCCN5C(=O)[C@@H](NC(=O)OC)[C@@H](C)OC)[nH]c4C)cc3)cc2)[nH]1)C(C)OC (stereo in doubt) [Example E5f, methyl ((1S,2R)-2-methoxy-1-(((2S)-2-(4-(4′-(2-((2S)-1-(N-(methoxycarbonyl)-O-methyl-L-threonyl)-2-pyrrolidinyl)-4-methyl-1H-imidazol-5-yl)-4-biphenylyl)-1H-imidazol-2-yl)-1-pyrrolidinyl)carbonyl)propyl)carbamate] | 0.001 to 0.999
CCN(CC)[C@@H](C(=O)N1CCC[C@H]1c1ncc(-c2ccc(-c3ccc(-c4cnc([C@@H]5CCCN5C(=O)[C@H](C)NC(=O)OC)[nH]4)cc3)cc2)[nH]1)C(C)C [Example M101, methyl ((1S)-2-((2S)-2-(5-(4′-(2-((2S)-1-(N,N-diethyl-D-valyl)-2-pyrrolidinyl)-1H-imidazol-5-yl)-4-biphenylyl)-1H-imidazol-2-yl)-1-pyrrolidinyl)-1-methyl-2-oxoethyl)carbamate] | 100 to 999
CCN(CC)[C@@H](C(=O)N1CCC[C@H]1c1ncc(-c2ccc(-c3ccc(-c4cnc([C@@H]5CCCN5C(=O)[C@H](NC(=O)OC)c5ccccc5)[nH]4)cc3)cc2F)[nH]1)c1ccccc1 [Example D39, methyl ((1R)-2-((2S)-2-(5-(4′-(2-((2S)-1-((2R)-2-(diethylamino)-2-phenylacetyl)-2-pyrrolidinyl)-1H-imidazol-5-yl)-3′-fluoro-4-biphenylyl)-1H-imidazol-2-yl)-1-pyrrolidinyl)-2-oxo-1-phenylethyl)carbamate] | 0.001 to 0.999
CCN(CC)[C@@H](C(=O)N1CCC[C@H]1c1ncc(-c2ccc(-c3ccc(-c4cnc([C@@H]5CCCN5C(=O)C[C@@H](Cc5ccsc5)NC(=O)OC)[nH]4)cc3)cc2)[nH]1)c1ccccc1 [cj-55, methyl ((1R)-3-((2S)-2-(5-(4′-(2-((2S)-1-((2R)-2-(diethylamino)-2-phenylacetyl)-2-pyrrolidinyl)-1H-imidazol-5-yl)-4-biphenylyl)-1H-imidazol-2-yl)-1-pyrrolidinyl)-3-oxo-1-(3-thienylmethyl)propyl)carbamate] | 0.001 to 0.999
COC(=O)N[C@@H](C(=O)N1CCC[C@H]1c1ncc(-c2ccc(-c3ccc(-c4cnc([C@@H]5CCCN5C(=O)[C@@H]5CCC[C@H]5NC(=O)OC)[nH]4)cc3)cc2)[nH]1)c1ccccc1 [cj-110, methyl ((1R)-2-((2S)-2-(5-(4′-(2-((2S)-1-(((1R,2R)-2-((methoxycarbonyl)amino)cyclopentyl)carbonyl)-2-pyrrolidinyl)-1H-imidazol-5-yl)-4-biphenylyl)-1H-imidazol-2-yl)-1-pyrrolidinyl)-2-oxo-1-phenylethyl)carbamate] | 0.001 to 0.999
CC[C@H](NC(=O)OC)C(=O)N1CCC[C@H]1c1ncc(-c2ccc(-c3ccc(-c4cnc([C@@H]5CCCN5C(=O)[C@@H](NC(=O)OC)C(C)C)[nH]4)cc3)cc2)[nH]1 [Example M74, methyl ((1S)-1-(((2S)-2-(5-(4′-(2-((2S)-1-((2S)-2-((methoxycarbonyl)amino)butanoyl)-2-pyrrolidinyl)-1H-imidazol-5-yl)-4-biphenylyl)-1H-imidazol-2-yl)-1-pyrrolidinyl)carbonyl)-2-methylpropyl)carbamate] | 1 to 99
COCC[C@H](NC(=O)OC)C(=O)N1CCC[C@H]1c1ncc(-c2ccc(-c3ccc(-c4cnc([C@@H]5CCCN5C(=O)[C@H](C)NC(=O)OC)[nH]4)cc3)cc2)[nH]1 [cj-120, methyl ((1S)-3-methoxy-1-(((2S)-2-(5-(4′-(2-((2S)-1-(N-(methoxycarbonyl)-L-alanyl)-2-pyrrolidinyl)-1H-imidazol-5-yl)-4-biphenylyl)-1H-imidazol-2-yl)-1-pyrrolidinyl)carbonyl)propyl)carbamate] | 0.001 to 0.999
COC(=O)N[C@@H](C(=O)N1CCC[C@H]1c1ncc(-c2ccc(-c3ccc(-c4cnc([C@@H]5CCCN5C(=O)[C@H](C)N(C)C)[nH]4)cc3)cc2)[nH]1)c1ccccc1 [Example 76, methyl ((1R)-2-((2S)-2-(5-(4′-(2-((2S)-1-(N,N-dimethyl-L-alanyl)-2-pyrrolidinyl)-1H-imidazol-5-yl)-4-biphenylyl)-1H-imidazol-2-yl)-1-pyrrolidinyl)-2-oxo-1-phenylethyl)carbamate] | 0.001 to 0.999
CN(C)[C@@H](C(=O)N1CCC[C@H]1c1ncc(-c2ccc(-c3ccc(-c4cnc([C@@H]5CCCN5C(=O)[C@@H]5CCCO5)[nH]4)cc3)cc2)[nH]1)c1ccccc1 [Example 87, (1R)-N,N-dimethyl-2-oxo-1-phenyl-2-((2S)-2-(5-(4′-(2-((2S)-1-((2S)-tetrahydro-2-furanylcarbonyl)-2-pyrrolidinyl)-1H-imidazol-5-yl)-4-biphenylyl)-1H-imidazol-2-yl)-1-pyrrolidinyl)ethanamine] | 0.001 to 0.999
COC(=O)N[C@H]1CCC[C@@H]1C(=O)N1CCC[C@H]1c1ncc(-c2ccc(-c3ccc(-c4cnc([C@@H]5CCCN5C(=O)[C@H](NC(=O)OC)c5ccccc5)[nH]4)cc3)cc2)[nH]1 [cj-117, methyl ((1R)-2-((2S)-2-(5-(4′-(2-((2S)-1-(((1S,2S)-2-((methoxycarbonyl)amino)cyclopentyl)carbonyl)-2-pyrrolidinyl)-1H-imidazol-5-yl)-4-biphenylyl)-1H-imidazol-2-yl)-1-pyrrolidinyl)-2-oxo-1-phenylethyl)carbamate] | 0.001 to 0.999
COC(=O)N[C@@H](C)C(=O)N1CCC[C@H]1c1ncc(-c2ccc(-c3ccc(-c4[nH]c([C@@H]5CCCN5C(=O)[C@H](C)NC(=O)OC)nc4C(F)(F)F)cc3)cc2)[nH]1 [Example J38, methyl ((1S)-2-((2S)-2-(5-(4′-(2-((2S)-1-(N-(methoxycarbonyl)-L-alanyl)-2-pyrrolidinyl)-4-(trifluoromethyl)-1H-imidazol-5-yl)-4-biphenylyl)-1H-imidazol-2-yl)-1-pyrrolidinyl)-1-methyl-2-oxoethyl)carbamate] | 0.001 to 0.999
CN(C)[C@@H](C(=O)N1CCC[C@H]1c1ncc(-c2ccc(-c3ccc(-c4cnc([C@@H]5CCCN5C(=O)[C@@H](c5ccccc5)N5CCC(C)(O)CC5)[nH]4)cc3)cc2)[nH]1)c1ccccc1 [Example 94-3, 1-((1R)-2-((2S)-2-(5-(4′-(2-((2S)-1-((2R)-2-(dimethylamino)-2-phenylacetyl)-2-pyrrolidinyl)-1H-imidazol-5-yl)-4-biphenylyl)-1H-imidazol-2-yl)-1-pyrrolidinyl)-2-oxo-1-phenylethyl)-4-methyl-4-piperidinol] | 0.001 to 0.999
O=C([C@@H](c1ccccc1)N1CCCCC1)N1CC(F)(F)C[C@H]1c1nc(-c2ccc(-c3ccc(-c4cnc([C@@H]5CC(F)(F)CN5C(=O)[C@@H](c5ccccc5)N5CCCCC5)[nH]4)cc3)cc2)c[nH]1 [Example 24-8, 1,1′-(4,4′-biphenyldiylbis(1H-imidazol-4,2-diyl((2S)-4,4-difluoro-2,1-pyrrolidinediyl)((1R)-2-oxo-1-phenyl-2,1-ethanediyl)))dipiperidine] | 0.001 to 0.999
